# How the values were obtained:
# Rattus norvegicus = conditions: for LD50: acute, mortality
# Apis mellifera = conditions: acute; dermal; mortality
# Coturnix japonica = conditions: acute, oral, mortality
# Oncorhynchus mykiss = conditions: acute; duration: 96 hours; mortality
# Aphidius rhopalosiphi = experiment: LR50; higher = less toxic; conditions: not reported; mortality
# Typhlodromus pyri = experiment: LR50; higher = less toxic; conditions: not reported; mortality
smiles,measurement,setting,value
NC(=O)Cc1cccc2ccccc12 [1-Naphthaleneacetamide],LD50,"Rattus norvegicus; oral, M",1660 mg/kg-day
same,LD50,Rattus norvegicus; oral,> 5050 mg/kg-day
same,NOAEL,"Rattus norvegicus; chronic, duration: 2 years, organ weight",43.8 mg/kg-day
same,NOAEL,"Rattus norvegicus; developmental, development",15 mg/kg-day
same,NOAEL,"Rattus norvegicus; subchronic, duration: 90 days, oral, hematological",10 mg/kg-day
same,NOAEL,"Rattus norvegicus; subchronic, duration: 90 days, oral, organ weight",5 mg/kg-day
same,LD50,"Mus musculus; acute, oral, F, mortality",1930 mg/kg-day
same,NOAEL,"Mus musculus; chronic, duration: 18 months, other",195 mg/kg-day
same,LD50,Apis mellifera,> 100 µg/piece
same,LC50,Coturnix japonica; diet,4370 mg/kg-day
same,LD50,Coturnix japonica,> 2000 mg/kg-day
same,LC50,Oncorhynchus mykiss,44 µg/mL
same,LR50,Aphidius rhopalosiphi,> 40 g/ha
same,LR50,Typhlodromus pyri,> 40 g/ha
